Earlier results on two molecules are cited in patent US8168440B2, “Polymeric sulfated surfactants for capillary electrophoresis (CE) and CE-mass spectrometry (CE-MS)” (Georgia State University, priority 2006, dated 2012).

For data set [1] the following is noted: in vivo.

A word on the pKa: it is the negative logarithm of the acid dissociation constant. `CC(Oc1ccccc1Cl)C(=O)O` (racemic) [(±)-2-PPA, 2-(2-chlorophenoxy)propionic acid]: the pKa is 3.11±0.1.

For `CN[C@@H](C)[C@@H](O)c1ccccc1` (racemic) [(±)-pseudoephedrine, pseudoephedrine], in data set [1], the “Part of the dosage taken excreted in the urine” value was “about one-half” and the Serum half-life was 5 to 8 h.
